From PubChem BioAssay (NCI)
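Briefly, cells in 96-well plates were exposed to five compound concentrations for 48 h, and endpoints were estimated by linear interpolation. TGI: total growth inhibition.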

Tests used:
Assay in all cases: DTP human tumour cell line panel, 48 h
RXF 393 renal = test system: RXF 393 renal
SK-MEL-5 melanoma = test system: SK-MEL-5 melanoma
K-562 leukemia = test system: K-562 leukemia
OVCAR-4 ovarian = test system: OVCAR-4 ovarian
KM20L2 colon = test system: KM20L2 colon
SN12C renal = test system: SN12C renal
CCRF-CEM leukemia = test system: CCRF-CEM leukemia
NCI-H460 lung = test system: NCI-H460 lung
M14 melanoma = test system: M14 melanoma
COLO 205 colon = test system: COLO 205 colon
HT29 colon = test system: HT29 colon
OVCAR-5 ovarian = test system: OVCAR-5 ovarian
HCT-116 colon = test system: HCT-116 colon
NCI-H522 lung = test system: NCI-H522 lung
SF-295 CNS = test system: SF-295 CNS
ACHN renal = test system: ACHN renal
MOLT-4 leukemia = test system: MOLT-4 leukemia
RPMI-8226 leukemia = test system: RPMI-8226 leukemia
HS 578T breast = test system: HS 578T breast
MDA-MB-231 breast = test system: MDA-MB-231 breast

Structure (SMILES)	TGI (RXF 393 renal) [µM]	TGI (SK-MEL-5 melanoma) [µM]	TGI (K-562 leukemia) [µM]	TGI (OVCAR-4 ovarian) [µM]	TGI (KM20L2 colon) [µM]	TGI (SN12C renal) [µM]	TGI (CCRF-CEM leukemia) [µM]	TGI (NCI-H460 lung) [µM]	TGI (M14 melanoma) [µM]	TGI (COLO 205 colon) [µM]	TGI (HT29 colon) [µM]	TGI (OVCAR-5 ovarian) [µM]	TGI (HCT-116 colon) [µM]	TGI (NCI-H522 lung) [µM]	TGI (SF-295 CNS) [µM]	TGI (ACHN renal) [µM]	TGI (MOLT-4 leukemia) [µM]	TGI (RPMI-8226 leukemia) [µM]	TGI (HS 578T breast) [µM]	TGI (MDA-MB-231 breast) [µM]
Cn1nc(-c2ccccc2)c(N=[N+]=[N-])cc1=O	> 100	> 100	> 100	> 100	> 100	> 100	> 100	> 100	> 100	> 100	> 100	> 100	> 100	> 100	> 100	> 100	> 100	> 100		
COc1ccc(C2c3cc4c(cc3OC(NNC(N)=O)C2C)OCO4)cc1 (stereo unspecified)	54.5	> 63.2	> 34.9	> 100		> 100	> 29.4	98.9	> 60.1	15	17.2	> 100	21.5	18.3	21.1	> 100	74.5	20.2	> 100	> 100
O=C1c2n[nH]nc2C(=O)c2n[nH]nc21	> 100	> 100	> 100	> 100		> 100	> 100	> 100	> 100	> 100	> 100	> 100	> 100	> 100	> 100	> 100	> 100	> 100	> 100	> 100
Cc1ccc(C(=O)Cc2nc3ncccc3[nH]c2=O)cc1	> 100	> 100	> 100	84		> 100	> 100	> 100	> 100	> 100	> 100	> 100	70.4	> 100	> 100	69.3	> 100	> 100	71.3	60.7
Cc1ccc(S(=O)(=O)Nc2nc3ccccc3c(=O)n2C2CCCCC2)cc1	> 100	> 100	> 100	> 100		> 100	> 100	> 100	> 100	> 100	> 100	> 100	> 100	> 100	> 100	> 100	> 100	> 100	> 100	> 100
CC(=O)N1CC(C)(C)c2c1cc(C)c(O)c2C	> 100	> 100	> 100	> 100		> 100	> 100	> 100	> 100	> 100	> 100	> 100	> 100	> 100	> 100	> 100	> 100	> 100	> 100	> 100
CC1(CCc2ccccc2)CC1(Br)Br (stereo unspecified)	41.2	30.1	38.2	> 100		38.1	67.7	> 100	> 100	51.7	> 100	> 100	> 100	61.5	> 100	61	56	44.8	> 100	> 100
CCOC(=O)CN=C1Nc2ccccc2C(=O)N2CSCC12 (stereo unspecified)	> 100	> 100	> 100	> 100		> 100	> 100	> 100	> 100	> 100	> 100	> 100	> 100	> 100	> 100	> 100	> 100	> 100	> 100	> 100
